In data set [1] the test system is human erythrocytes. The experiment in a line: hemolytic assay. The data set is classed as cell-based. As to the method: The hemolytic potential of the lead peptides was determined following an established erythrocyte hemolysis protocol. In brief, 15 mL of venous blood was drawn from a healthy individual, centrifuged at 3000 rpm for 10 min, and the plasma was discarded. The residual pellet (RBCs) was washed 3 times with PBS (pH 7.4, 0.1 M), and the resultant pellet was resuspended in PBS in a 1:10 ratio. Subsequently, 0.9 mL of the RBC suspension was incubated with 0.1 mL of peptides at various concentrations, a negative control (100 μL PBS + 900 μL RBC suspension), and a positive control (100 μL of 0.5% Triton-X-100 + 900 μL of RBC suspension), and incubated at 37 °C for 24 h. Post incubation, all tubes were centrifuged at 3000 rpm for 10 min. 0.1 mL of the supernatant was then transferred to 96-well plates, and the absorbance of the supernatant was read at 540 nm. […] The corrected values were calculated as Acontrol=Apos−Aneg and Asample=Atest−Aneg where Apos , Aneg and Atest are the absorbance values of the positive control, negative control, and peptide-treated sample (given concentration), respectively.

For data set [2] the following is noted: within 24 h at 5 mg/mL; cited from earlier work.
The target of data set [3] is α-glucosidase. Also on record: method as in PMID 31139399. The conditions noted are these: soy protein-derived peptides; cited from earlier work.
For data set [4] the following is noted: cited from earlier work.
In data set [5] the target is T1, porcine pancreatic α-amylase (Sus scrofa, UniProt P00690).
T1 construct: purchased SRL (Sisco Research Laboratories)
T1 sequence (P00690 16-511): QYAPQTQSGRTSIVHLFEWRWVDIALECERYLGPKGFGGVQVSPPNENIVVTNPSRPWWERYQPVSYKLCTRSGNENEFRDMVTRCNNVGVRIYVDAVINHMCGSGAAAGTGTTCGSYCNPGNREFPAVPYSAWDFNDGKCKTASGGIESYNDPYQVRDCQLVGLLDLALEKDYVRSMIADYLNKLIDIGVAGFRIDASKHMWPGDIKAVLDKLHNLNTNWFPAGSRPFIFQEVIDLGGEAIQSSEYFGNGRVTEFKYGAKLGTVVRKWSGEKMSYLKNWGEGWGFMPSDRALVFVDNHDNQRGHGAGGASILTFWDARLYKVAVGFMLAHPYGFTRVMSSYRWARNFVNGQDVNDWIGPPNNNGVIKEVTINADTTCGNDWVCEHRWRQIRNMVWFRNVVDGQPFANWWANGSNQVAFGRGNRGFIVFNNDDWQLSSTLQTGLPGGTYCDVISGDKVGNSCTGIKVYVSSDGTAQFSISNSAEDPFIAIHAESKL
The experiment in a line: α-amylase inhibition assay. The data set is classed as biochemical. As to the method:
The enzymatic reaction was initiated by adding the starch substrate and allowed to proceed for 15 min. The reaction was then terminated by adding the 3,5-dinitrosalicylic acid (DNSA) reagent, and the mixture was heated to boiling for 5 min. […] IC50 values were obtained from plots of percentage inhibition versus sample concentration.

In data set [6] the target is aldose reductase (Homo sapiens, UniProt P15121). Kind of data set: aldose reductase inhibition assay. The data set is classed as biochemical. Here is the method: The aldose reductase inhibition assay was performed according to the method described by Alharbi et al.. Briefly, a 1 mL reaction mixture comprised 0.87 mL of 100 mM Sodium phosphate buffer (pH 6.2), 0.05 mL of 3 mM NADPH, 0.01 mL of human aldose reductase (recombinant, 0.2 U/mL), with the enzyme’s activity being 0.2 IU/mL, and 0.02 mL of test compounds (designated as peptide 1 and peptide 2) at different concentrations. 0.05 mL of the substrate (DL-glyceraldehyde, five mM) was incubated in the reaction mixture for 3 min at 25 °C. Enzyme activity was determined by measuring the reduction in NADPH absorption at 340 nm over 10 min. […] Aldose reductase inhibitory activity was expressed as the percentage of inhibition.

Data set [7] concerns the target aldose reductase. Also on record: method as in doi:10.3390/separations9090262. The settings on record: cited from earlier work.
The nature of data set [8]: methylglyoxal scavenging (Maillard reaction model, DNPH assay). Here is the method:
This preliminary assay was conducted to evaluate the methylglyoxal scavenging activity of peptides derived from coconut milk. The Maillard reaction was employed to assess the scavenging potential of peptides against methylglyoxal, using parameters as outlined in previous studies by Risum et al., Zhu et al., and Brings et al., with modifications. The reaction mixture (1 mL) consisted of both peptides at different concentrations, methylglyoxal (0.01 mM), phosphate buffer, and water. It was incubated at two temperatures: room temperature (followed by immediate termination) and 37 °C (for 2 h). Following the incubation time, the reaction was terminated by adding 10 μL of glacial acetic acid. Creatine was used as a positive control. The experiments were performed in triplicate.
The scavenging potential of the peptides against methylglyoxal was determined using the DNPH assay. In brief, 25 μL of the sample was mixed with 975 μL of water and 1000 μL of DNPH reagent. The reaction mixture was shaken well and incubated at 37 °C for 10 min. Following incubation, the reaction was terminated by adding 1000 μL of 1.5 N NaOH, and the absorbance of the yellowish-orange complex was measured at 525 nm using […]: the MGO blank and the Creatine blank. Scavenging efficiency was calculated using Equations (4) and (5).(4) ACORR=Asample−Ablank (5) MGOscavenging=1−Acorr/AMGO,corr·100 where Asample is the absorbance of the reaction mixture containing methylglyoxal and the test compound (peptide or creatine), Ablank is the absorbance of the reagent blank (without methylglyoxal and without test compound), and AMGO,corr is the blank-corrected absorbance of the methylglyoxal blank (AMGO-Ablank). The creatine control was processed in the same way as the peptide samples.

Data set [9] is described as follows: superoxide radical scavenging assay (NBT). Here is the method:
After 10 min of incubation at 25 °C in the dark, absorbance was recorded at 560 nm. Samples without NBT served as blanks, and ascorbic acid was used as the positive control. The results were expressed as the effective concentration (EC50) values.

Data set [10] can be described thus: ABTS radical scavenging assay. Here is the method:
Concerning the ABTS assay, the ABTS^•+ radical cation was generated. Subsequently, 0.05 mL of the test samples (peptides 1 and 2) at various concentrations was mixed with 4.00 mL of ABTS^•+ solution and kept in the dark at room temperature for two h. The absorbance was determined at 734 nm using a UV–Vis Spectrophotometer (UV-1280 Shimadzu, Germany). Ascorbic acid was used as the positive control, and samples without the ABTS radical solution served as blanks. The results were expressed as the effective concentration (EC50) values.

A short description of data set [11]: DPPH radical scavenging assay. As to the method: The antioxidant assays of the test compounds were conducted in vitro, following previous studies, using the standard DPPH, ABTS, and superoxide radical scavenging assays. Regarding the DPPH assay, 0.2 mL of the test samples (peptides 1 and 2) at various concentrations was added to 1.2 mL of a 40 μg/mL DPPH solution in methanol. The mixtures were shaken vigorously and incubated in the dark for 20 min, after which the reduction in DPPH absorption was measured at 517 nm. The samples without DPPH and with methanol served as blanks. Ascorbic acid was used as the positive control.
A general note: Loss of DPPH colour is used to gauge radical scavenging.

In data set [12] the target is human aldose reductase. Also on record: method as in doi:10.1016/j.fbio.2025.107775. The settings on record: cited from earlier work.

Where two headings read alike, the source gives them in different places. Ends that are not written are not given here.

Triton-X-100 [reference compound]: in data set [1] (human RBC, 37 °C, 24 h), the “Hemolytic Assay (HC50)” value was 105.25 ± 0.17 µg/mL and the “Hemolytic Assay (HC50) (value in bracket)” value came out at 162.67 µM. Also, the “Hemolytic Assay (HC50)” value in data set [1] (human RBC, 37 °C, 24 h, listed as Triton X-100) turned out to be 105.25 µg/mL.

For the molecule “VVFPGCPE [Ginkgo biloba peptide, literature]”, in data set [2], the methylglyoxal scavenging result is “up to 66.50%”.

For the molecule WLRL, the IC50 in data set [3] is 162.3 ± 0.74 µM.

Turning to YFYPEL, the superoxide scavenging activity in [4] was 65.8 µg/mL. In data set [4] (read-out: superoxide scavenging activity (value in bracket)), the EC50 was 79.2 µM.

On to LLLRW, for which the “superoxide anion radical scavenging EC50” value in [4] is 430 ± 12 µg/mL.

Turning to MQIFVK [Peptide 1, MQIFVK], the “Hemolytic Assay (HC50)” value in data set [1] was 220.85 ± 0.20 µg/mL. Further, the “Hemolytic Assay (HC50) (value in bracket)” value in [1] (red cells of human, 24 h) worked out at 288.70 µM. Also, the IC50 was 115 µM in data set [5] (mean ± SD, read-out: α-Amylase Inhibition IC50 (converted)); 115 µM in data set [5] (read-out: α-Amylase Inhibition IC50 (value in bracket) (converted)); 29.4 µM in data set [6] (mean ± SD, read-out: Aldose Reductase Inhibition IC50 (converted)); 29.4 µM in [6] (read-out: Aldose Reductase Inhibition IC50 (value in bracket) (converted)).

For the molecule `C[C@@H]1O[C@@H](OC[C@H]2O[C@@H](Oc3c(-c4ccc(O)c(O)c4)oc4cc(O)cc(O)c4c3=O)[C@H](O)[C@@H](O)[C@@H]2O)[C@H](O)[C@H](O)[C@H]1O` [rutin], the “aldose reductase IC50” value in [7] is 7.86 ± 0.33 µg/mL.

On to `CN(CC(=O)O)C(=N)N` [Creatine, reference compound], for which the “Methylglyoxal Scavenging EC50 at 37 °C, 2 h” value in [8] (37 °C, 2 h) is recorded as 230.05 ± 0.34 µg/mL. In addition, the EC50 in data set [8] (read-out: Methylglyoxal Scavenging EC50 at 37 °C, 2 h (value in bracket), 37 °C, 2 h) was 1750 µM; in data set [8] (room temperature, immediate termination, read-out: Methylglyoxal Scavenging EC50 at RT (value in bracket) (converted)), 1750 µM.

As for GDMNP, the “superoxide anion radical scavenging EC50” value in data set [4] is 400 ± 8 µg/mL.

Turning to `O=C1O[C@H]([C@@H](O)CO)C(O)=C1O` [Ascorbic acid, reference compound], the “Superoxide Radical Scavenging Assay EC50” value in data set [9] was determined as 57.71 ± 0.16 µg/mL. The values for the EC50 in data set [9] (read-out: Superoxide Radical Scavenging Assay EC50 (value in bracket) (converted)), in data set [10] (read-out: ABTS Radical Scavenging Assay EC50 (value in bracket) (converted)) and in data set [11] (read-out: DPPH Radical Scavenging Assay EC50 (value in bracket) (converted)) were 328 µM, 129 µM and 163 µM, respectively. For the same molecule, in [10], the “ABTS Radical Scavenging Assay EC50” value is reported as 22.74 ± 0.27 µg/mL. Besides, the “DPPH Radical Scavenging Assay EC50” value in [11] is listed as 28.65 ± 0.17 µg/mL.

For the molecule `O=C(O)Cn1c(=O)n(Cc2ccc(Br)cc2F)c(=O)c2ccc(Cl)cc21` [zenarestat], the “human aldose reductase IC50” value in [12] is reported as 59.68 ± 0.47 µg/mL.

For “LPLPVLK [soy protein-derived peptide, literature]”, the IC50 in [3] is 237.4 ± 0.52 µM.

Turning to SWLRL, in data set [3], the IC50 is 182.1 ± 0.74 µM.

What is called IC50 is the concentration at which inhibition is half-maximal.

These data come from article PMC12785583, “Coconut Milk-Derived Bioactive Peptides as Multifunctional Agents Against Hyperglycemia, Oxidative Stress, and Glycation: An Integrated Experimental and Computational Study” (International Journal of Molecular Sciences, 2025).
